Measurements reported in ChEMBL document CHEMBL3046568, “Synthesis, antimicrobial and DNA cleavage studies of some 4-aryloxymethylcoumarins obtained by reaction of 4-bromomethylcoumarins with bidentate nucleophiles” (2012).
Converted amounts (≈) assume the structure as drawn. The source made the active and inactive calls. The calls are words filed in the database; no cut-off is given here.

What was measured:
Fusarium oxysporum = experiment: Antifungal activity against Fusarium oxysporum after 3 to 4 days by serial dilution method; assay type: functional; conditions: for MIC: Fusarium oxysporum
Penicillium chrysogenum = experiment: Antifungal activity against Penicillium chrysogenum after 3 to 4 days by serial dilution method; assay type: functional; conditions: for MIC: Penicillium chrysogenum
Pseudomonas aeruginosa = experiment: Antibacterial activity against Pseudomonas aeruginosa MTCC 1034 after 24 hr by disk diffusion method; assay type: functional; conditions: for MIC: Pseudomonas aeruginosa, MTCC 1034, 24 h
Staphylococcus aureus [1] = experiment: Induction of Staphylococcus aureus MTCC 3160 DNA cleavage at 50 ug after 2 hr by agarose gel electrophoresis
Bacillus subtilis = experiment: Antibacterial activity against Bacillus subtilis MTCC 297 after 24 hr by disk diffusion method; assay type: functional; conditions: for MIC: Bacillus subtilis, MTCC 297, 24 h
Enterococcus faecalis = experiment: Antibacterial activity against Enterococcus faecalis MTCC 3382 after 24 hr by disk diffusion method; assay type: functional; conditions: for MIC: Enterococcus faecalis, MTCC 3382, 24 h
Escherichia coli [2] = experiment: Antibacterial activity against Escherichia coli MTCC 1089 after 24 hr by disk diffusion method; assay type: functional; conditions: for MIC: Escherichia coli, MTCC 1089, 24 h
Candida albicans = experiment: Antifungal activity against Candida albicans after 3 to 4 days by serial dilution method; assay type: functional; conditions: for MIC: Candida albicans
Aspergillus niger [3] = experiment: Induction of Aspergillus niger DNA cleavage at 50 ug after 2 hr by agarose gel electrophoresis
Aspergillus fumigatus = experiment: Antifungal activity against Aspergillus fumigatus after 3 to 4 days by serial dilution method; assay type: functional; conditions: for MIC: Aspergillus fumigatus
Staphylococcus aureus [4] = experiment: Antibacterial activity against Staphylococcus aureus MTCC 3160 after 24 hr by disk diffusion method; assay type: functional; conditions: for MIC: Staphylococcus aureus, MTCC 3160, 24 h
Mucor fuscus = experiment: Antifungal activity against Mucor fuscus after 3 to 4 days by serial dilution method; assay type: functional; conditions: for MIC: Mucor fuscus
Escherichia coli [5] = experiment: Induction of Escherichia coli MTCC 1089 DNA cleavage at 50 ug after 2 hr by agarose gel electrophoresis
Klebsiella pneumoniae = experiment: Antibacterial activity against Klebsiella pneumoniae MTCC 3384 after 24 hr by disk diffusion method; assay type: functional; conditions: for MIC: Klebsiella pneumoniae, MTCC 3384, 24 h
Aspergillus niger [6] = experiment: Antifungal activity against Aspergillus niger after 3 to 4 days by serial dilution method; assay type: functional; conditions: for MIC: Aspergillus niger

Row | Compound | inhibition zone (IZ) (Fusarium oxysporum) [mm] | MIC (Fusarium oxysporum) [µg/mL] | inhibition zone (IZ) (Penicillium chrysogenum) [mm] | MIC (Penicillium chrysogenum) [µg/mL] | inhibition zone (IZ) (Pseudomonas aeruginosa) [mm] | MIC (Pseudomonas aeruginosa) [µg/mL] | Activity (Staphylococcus aureus [1]) | inhibition zone (IZ) (Bacillus subtilis) [mm] | MIC (Bacillus subtilis) [µg/mL] | inhibition zone (IZ) (Enterococcus faecalis) [mm] | MIC (Enterococcus faecalis) [µg/mL] | inhibition zone (IZ) (Escherichia coli [2]) [mm] | MIC (Escherichia coli [2]) [µg/mL] | inhibition zone (IZ) (Candida albicans) [mm] | MIC (Candida albicans) [µg/mL] | Activity (Aspergillus niger [3]) | inhibition zone (IZ) (Aspergillus fumigatus) [mm] | MIC (Aspergillus fumigatus) [µg/mL] | inhibition zone (IZ) (Staphylococcus aureus [4]) [mm] | MIC (Staphylococcus aureus [4]) [µg/mL] | further results
1 | CCN(CC)c1cccc(OCc2cc(=O)oc3c2ccc2ccccc23)c1 | 13 | 25 (≈ 66.9 µM) | 17 | 12.5 (≈ 33.5 µM) | 19 | 6.25 (≈ 16.7 µM) | inactive | 11 | 25 (≈ 66.9 µM) | 14 | 12.5 (≈ 33.5 µM) | 13 | 25 (≈ 66.9 µM) | 14 | 12.5 (≈ 33.5 µM) | inactive | 15 | 12.5 (≈ 33.5 µM) | 14 | 12.5 (≈ 33.5 µM) | inhibition zone (IZ) (Mucor fuscus): 13 mm; MIC (Mucor fuscus): 25 µg/mL (≈ 66.9 µM); Activity (Escherichia coli [5]): inactive; inhibition zone (IZ) (Klebsiella pneumoniae): 16 mm; MIC (Klebsiella pneumoniae): 12.5 µg/mL (≈ 33.5 µM); inhibition zone (IZ) (Aspergillus niger [6]): 17 mm; MIC (Aspergillus niger [6]): 12.5 µg/mL (≈ 33.5 µM)
2 | CC(=O)Nc1cccc(OCc2cc(=O)oc3ccc(Br)cc23)c1 | 13 | 25 (≈ 64.4 µM) | 20 | 6.25 (≈ 16.1 µM) | 22 | 6.25 (≈ 16.1 µM) | Active | 17 | 6.25 (≈ 16.1 µM) | 18 | 6.25 (≈ 16.1 µM) | 14 | 12.5 (≈ 32.2 µM) | 16 | 12.5 (≈ 32.2 µM) | Active | 20 | 6.25 (≈ 16.1 µM) | 17 | 6.25 (≈ 16.1 µM) | inhibition zone (IZ) (Mucor fuscus): 19 mm; MIC (Mucor fuscus): 6.25 µg/mL (≈ 16.1 µM); Activity (Escherichia coli [5]): Active; inhibition zone (IZ) (Klebsiella pneumoniae): 18 mm; MIC (Klebsiella pneumoniae): 6.25 µg/mL (≈ 16.1 µM); inhibition zone (IZ) (Aspergillus niger [6]): 20 mm; MIC (Aspergillus niger [6]): 6.25 µg/mL (≈ 16.1 µM)
3 | CC(=O)Nc1cccc(OCc2cc(=O)oc3ccc4ccccc4c23)c1 | 12 | 25 (≈ 69.6 µM) | 18 | 12.5 (≈ 34.8 µM) | 18 | 12.5 (≈ 34.8 µM) | inactive | 11 | 25 (≈ 69.6 µM) | 10 | 25 (≈ 69.6 µM) | 13 | 25 (≈ 69.6 µM) | 15 | 12.5 (≈ 34.8 µM) | inactive | 17 | 12.5 (≈ 34.8 µM) | 13 | 12.5 (≈ 34.8 µM) | inhibition zone (IZ) (Mucor fuscus): 15 mm; MIC (Mucor fuscus): 25 µg/mL (≈ 69.6 µM); Activity (Escherichia coli [5]): inactive; inhibition zone (IZ) (Klebsiella pneumoniae): 15 mm; MIC (Klebsiella pneumoniae): 12.5 µg/mL (≈ 34.8 µM); inhibition zone (IZ) (Aspergillus niger [6]): 19 mm; MIC (Aspergillus niger [6]): 6.25 µg/mL (≈ 17.4 µM)
